This is an account of results in US20090048190A1, “Antiviral activity and resolution of 2-hydroxymethyl-5(5-fluorocytosin-1-yl)-1,3-oxathiolane” (priority 1990, published 2009).

Several values for one entry are separate records, joined by “and”; a condition that tells them apart may be missing. Equal values may be shown once. Read-outs that look alike come from different tables or passages of the source. Bounds are passed on as bounds.

In one data set the test system is HIV-1 (strain LAV). Format: cell-based. The source says: It is often desirable to screen a number of racemic mixtures of nucleosides as a preliminary step to determine which warrant further resolution into enantiomerically enriched components and further evaluation of antiviral activity. The ability of nucleosides to inhibit HIV can be measured by various experimental techniques. The technique used herein, and described in detail below, measures the inhibition of viral replication in phytohemagglutinin (PHA) stimulated human peripheral blood mononuclear (PBM) cells infected with HIV-1 (strain LAV). The amount of virus produced is determined by measuring the virus-coded reverse transcriptase enzyme. The amount of enzyme produced is proportional to the amount of virus produced.
A. Three-day-old phytohemagglutinin-stimulated PBM cells (10^6 cells/ml) from hepatitis B and HIV-1 seronegative healthy donors were infected with HIV-1 (strain LAV) at a concentration of about 100 times the 50% tissue culture infectious dose (TICD 50) per ml and cultured in the presence and absence of various concentrations of antiviral compounds.
B. Approximately one hour after infection, the medium, with the compound to be tested (2 times the final concentration in medium) or without compound, was added to the flasks (5 ml; final volume 10 ml). AZT was used as a positive control.
C. The cells were exposed to the virus (about 2×10^5 dpm/ml, as determined by reverse transcriptase assay) and then placed in a CO2 incubator. HIV-1 (strain LAV) was obtained from the Center for Disease Control, Atlanta, Ga. The methods used for culturing the PBM cells, harvesting the virus and determining the reverse transcriptase activity were those described by McDougal et al. (J. Immun. Meth. 76, 171-183, 1985) and Spira et al. (J. Clin. Meth. 25, 97-99, 1987), except that fungizone was not included in the medium (see Schinazi, et al., Antimicrob. Agents Chemother. 32, 1784-1787 (1988); Id., 34:1061-1067 (1990)).
D. On day 6, the cells and supernatant were transferred to a 15 ml tube and centrifuged at about 900 g for 10 minutes. Five ml of supernatant were removed and the virus was concentrated by centrifugation at 40,000 rpm for 30 minutes (Beckman 70.1 Ti rotor). The solubilized virus pellet was processed for determination of the levels of reverse transcriptase. Results are expressed in dpm/ml of sampled supernatant. Virus from smaller volumes of supernatant (1 ml) can also be concentrated by centrifugation prior to solubilization and determination of reverse transcriptase levels.

For data set [1], the system named is AZT-resistant HIV isolates. Particulars: in vitro, isolates from patients treated with AZT for longer than 36 weeks; cited from earlier work.
Data set [2] relates to HIV. The note with it: compared with AZT; cited from earlier work.
The subject of a further data set is human PBM cells. The data set is described as follows: Egress of radiolabeled FTC from human PBM cells. It counts as in vitro ADME. The note with it: human PBM cells after 24 h pulse with 10 μM. How it is done:
This study measures the time needed for intracellular levels of triphosphates to decline. Studies were conducted in duplicate. Uninfected cells (2×10^6 ml) were suspended in the appropriate medium supplemented with serum (10 ml per timepoint) and incubated at 37° C. in a 5% CO2 incubator. The radiolabeled FTC concentration was 10 μM. After pulsing the cells with the labeled compound for 24 hours, the cells were thoroughly washed and then replenished with fresh medium without the antiviral drugs (0 hr). At 0, 2, 4, 6, 12, 24, and 48 hours (second incubation time), the cells were removed, and immediately extracted with 60% cold methanol/water. The extract was obtained by centrifugation and removal of the cell pellet. The extracts were lyophilized and then stored at −70° C. Prior to analysis, the material was resuspended in 250 microliters of HPLC buffer and immediately analyzed. Quantitation of intracellular parent drug and metabolic derivatives was conducted by HPLC, using either a Micromeritics or Hewlett-Packard model 1090 PHLC system with an anion exchange Partisil 10 SAX column (Whatman, Inc.), at a flow rate of 1 ml/min, 1 kpsi pressure, with UV detection at 262 nm. The mobile phase consisted of deionized water (A), 2 mM NaH2PO4/16 mM NaOAc (pH=6.6) (B), 15 mM NaH2PO4/120.2 mM NaOAc (pH=6.6) (C), and 100 mM NaH2PO4/800 mM NaOAc (pH=6.6) (D). […]

For data set [3], the target named is T1, HIV-1 reverse transcriptase (RT) (Human immunodeficiency virus type 1 group M subtype B, UniProt P04585).
T1 construct: HIV-1 reverse transcriptase (RT)
The data set is described as follows: Inhibition of HIV-1 reverse transcriptase by FTC triphosphate. Particulars: sequencing analysis, HIV-RT (C-stops). Format: biochemical. As for the experimental part: Toxicity and pharmacokinetic studies confirm the usefulness of FTC as an antiviral agent for pharmaceutical administration. FTC and its enantiomers are nontoxic to peripheral human bone marrow cells at concentrations up to 50 µM and other cell lines at concentrations up to 200 μM. FTC-TP is a major intracellular metabolite in PBMC and HepG2 cells.

The test system of data set [4] is uninfected human PBM cells. The source says:
The cells were counted after 6 days using a hemacytometer and the trypan blue exclusion method, as described by Schinazi et al., Antimicrobial Agents and Chemotherapy, 22(3), 499 (1982).

Another data set has as its system HIV-2. Put plainly: Antiretroviral activity in different cell systems, HIV-2. Format: cell-based. The note with it: PBMC (ROD2). As for the experimental part:
Cell lines were obtained from either human donors, AIDS Research and Reference Reagent Program, NIH, Rockville, Md., ATCC, or the Red Cross. The CEM thymidine kinase deficient cells were prepared by sequential passage of CEM cells in the presence of 5-bromo-2′-deoxyuridine.

For data set [5], the system named is HIV. The data set is described as follows: microbe, parasite or virus in culture. Format: cell-based. Particulars: Human immunodeficiency virus 1; MT4 system.
The nature of data set [6]: CSF/serum ratio in rhesus monkeys. The note with it: 1 hour after treatment. Format: in vivo.
Setting [7] is: PBM cells, procedure similar to Example 6, read-out: EC50.
Where [8] appears, read: enantiomers resolved by HPLC (Example 4), Table 4, read-out: EC50.
Setting [9] is: human PBM cells, HIV-1 strain LAV, Table 3, read-out: Antiviral EC50.

Turning to `CCCC(=O)OC[C@@H]1O[C@H](n2cc(F)c(N)nc2=O)CS1` (racemic) [5′-O-butyrate ester of (±)-FTC], in the data set with HIV-1 (strain LAV) (setting [7]), the EC50 is 0.0017 µM.

Consider `Nc1ccn(C2CSC(CO)O2)c(=O)n1` (racemic) [(±)-BCH-189, 2-hydroxymethyl-5-(cytosin-1-yl)-1,3-oxathiolane], for which the “inhibition of replication of AZT-resistant HIV isolates” value in [1] was “inhibit the replication of AZT-resistant HIV isolates”. Also, in the data set with HIV [2], the “activity against HIV” value is listed as “approximately the same activity against HIV as AZT”.

On to `Nc1nc(=O)n([C@@H]2CS[C@H](COP(=O)(O)OP(=O)(O)OP(=O)(O)O)O2)cc1F` (racemic) [FTC-TP], for which the intracellular half-life result in the data set on human PBM cells is reported as “approximately 12 hours”. Moreover, the DNA chain termination entry in data set [3] is given as “potent DNA chain terminator”.

As for `CC(=O)Nc1nc(=O)n(C2CSC(CO)O2)cc1F` (racemic) [N′-acetyl derivative of (±)-FTC], the EC50 in the data set with HIV-1 (strain LAV) (setting [7]) was determined as 0.0028 µM.

`Nc1nc(=O)n(C2CSC(CO)O2)cc1F` (single isomer, unassigned; (-)) [(−)-FTC, (−)-β-L-2-hydroxymethyl-5-(5-fluorocytosin-1-yl)-1,3-oxathiolane] returned an IC50 in [4] greater than 100 µM. Further, the EC50 was 0.0007 µM in the data set on HIV-2, 0.02 µM with HIV-1 (strain LAV) (setting [8]) and 0.008 µM in the data set on HIV-1 (strain LAV) (setting [9]). Also, the DPM/ml in the data set with HIV-1 (strain LAV) (0.001 μM) was 76,275 DPM/ml; in the data set with HIV-1 (strain LAV) (0.005 μM) it was 58,590 DPM/ml; in the data set with HIV-1 (strain LAV) (0.01 μM), 75,350 DPM/ml; in the data set with HIV-1 (strain LAV) (0.05 μM), 28,890 DPM/ml; in the data set on HIV-1 (strain LAV) (0.1 μM), 13,175 DPM/ml; in the data set on HIV-1 (strain LAV) (0.5 μM), 9,485 DPM/ml.

`Nc1nc(=O)n([C@H]2CS[C@@H](CO)O2)cc1F` [(+)-FTC, (+)-β-D-2-hydroxymethyl-5-(5-fluorocytosin-1-yl)-1,3-oxathiolane]: the IC50 in data set [4] was greater than 100 µM. Also, the concentration giving a half-maximal response (EC50) in the data set with HIV-2 was determined as 0.026 µM; in the data set on HIV-1 (strain LAV) (setting [8]) it was 0.28 µM; in the data set with HIV-1 (strain LAV) (enantiomers resolved by method of Example 3, FIG. 6, read-out: EC50) it was 0.84 µM. Moreover, the “% Inhibition (Corrected)” value with HIV-1 (strain LAV) (0.001 μM) is reported as 3.8%; in the data set on HIV-1 (strain LAV) (0.005 μM), −10.6%; in the data set on HIV-1 (strain LAV) (0.01 μM), −1.8%; with HIV-1 (strain LAV) (0.05 μM) it was 11.8%; in the data set on HIV-1 (strain LAV) (0.1 μM) it was 12.7%; in the data set with HIV-1 (strain LAV) (0.5 μM), 71.4%. Also, the DPM/ml is recorded as 94,340 DPM/ml in the data set with HIV-1 (strain LAV) (0.001 μM); 107,430 DPM/ml with HIV-1 (strain LAV) (0.005 μM); 99,465 DPM/ml with HIV-1 (strain LAV) (0.01 μM); 87,120 DPM/ml with HIV-1 (strain LAV) (0.05 μM); 86,340 DPM/ml with HIV-1 (strain LAV) (0.1 μM); 33,225 DPM/ml in the data set with HIV-1 (strain LAV) (0.5 μM).

In the case of `Cc1cn([C@H]2C[C@H](N=[N+]=[N-])[C@@H](CO)O2)c(=O)[nH]c1=O` [AZT, 3′-azido-3′-deoxythymidine, reference compound], in the data set on HIV [5], the IC50 was found to be 0.09 µM.

As for `O=c1ccn(C2CSC(CO)O2)c(=O)[nH]1` (stereo not shown) [DLS-009], the IC50 in data set [4] is greater than 100 µM. Also, the EC50 in the data set with HIV-1 (strain LAV) (setting [9]) is greater than 100 µM.

With `Cc1cn(C2CSC(CO)O2)c(=O)[nH]c1=O` (stereo not shown) [DLS-010], the concentration giving a half-maximal response (EC50) in the data set with HIV-1 (strain LAV) (setting [9]) was 64.4 µM.

Turning to `Cc1cn([C@H]2CS[C@@H](CO)O2)c(=O)nc1N` [DLS-011], the EC50 in the data set with HIV-1 (strain LAV) (setting [9]) was greater than 10 µM.

Take `Nc1nc(=O)n([C@H]2CS[C@@H](CO)O2)cc1Br` [DLS-021]: the EC50 in the data set with HIV-1 (strain LAV) (setting [9]) amounted to 77.4 µM.

For `Nc1nc(=O)n([C@H]2CS[C@@H](CO)O2)cc1Cl` [DLS-023], in the data set with HIV-1 (strain LAV) (setting [9]), the EC50 was 38.7 µM.

As to `Nc1nc(=O)n([C@H]2CS[C@@H](CO)O2)cc1I` [DLS-026], the 50% effective concentration (EC50) in the data set with HIV-1 (strain LAV) (setting [9]) worked out at 0.72 µM.

In data set [4], `O=c1[nH]c(=O)n([C@H]2CS[C@@H](CO)O2)cc1F` [DLS-027] showed an IC50 greater than 100 µM. Besides, in the data set on HIV-1 (strain LAV) (setting [9]), the EC50 was greater than 100 µM.

For the molecule `O=c1[nH]c(=O)n([C@H]2CS[C@@H](CO)O2)cc1Cl` [DLS-028], the EC50 in the data set with HIV-1 (strain LAV) (setting [9]) is 60.8 µM.

In [4], `O=c1[nH]c(=O)n([C@H]2CS[C@@H](CO)O2)cc1I` [DLS-029] showed a concentration for half-maximal inhibition (IC50) greater than 100 µM. Besides, the EC50 in the data set on HIV-1 (strain LAV) (setting [9]) is greater than 100 µM.

Take `O=c1[nH]c(=O)n([C@H]2CS[C@@H](CO)O2)cc1Br` [DLS-044]: in [4], the IC50 was greater than 100 µM. Further, the EC50 in the data set on HIV-1 (strain LAV) (setting [9]) was greater than 100 µM.

Take `Nc1nc(=O)n([C@@H]2CS[C@H](CO)O2)cc1C(F)(F)F` [DLS-053]: the EC50 in the data set on HIV-1 (strain LAV) (setting [9]) was found to be 60.7 µM.

`O=c1[nH]c(=O)n(C2CSC(CO)O2)cc1F` (stereo not shown) [FTU]: the “CSF/Serum Ratio of deaminated metabolite (FTU)” value is 0.024 and 0.032 and 0.052 in [6] (I.V. FTC 33.3 mg/kg, individual monkeys); 0.036 in data set [6] (I.V. FTC 33.3 mg/kg, mean); 0.026 and 0.037 and 0.055 in data set [6] (P.O. FTC 33.3 mg/kg, individual monkeys); 0.039 in [6] (P.O. FTC 33.3 mg/kg, mean).

What is called EC50 is the concentration giving half of the maximal effect. As a reminder, the IC50 is the concentration that inhibits the measured activity by half. Lower therefore signals greater potency in that assay.
